Patent US20250129033A1, “METAP2 INHIBITORS AND USES THEREOF” (Yissum Research Development Company of the Hebrew …, priority 2022, published 2025)
Entries after “also recorded” stand apart in the source; their conditions may differ.

What was measured:
HUVECs = experiment: HUVEC proliferation assay (MTT); assay type: cell-based, human; conditions: for reduction in HUVECs proliferation: 72 h, MTT
Description: Human Umbilical Vein Endothelial Cells (HUVECs) or human melanoma cell line (A375) were used to validate the ability of the compound to suppress endothelial cell proliferation. Each 1500 A375 cells/well or 2000 HUVEC cells/well were seeded in a 96 wells plate and allowed to adhere to the plate for few hours. Compounds were then added to the cells at concentration range of 0.05-10 μM (<0.1% DMSO). Cells were then incubated for additional 72 hours and MTT was done (2 to 3 h at 37° C.). The dye was solubilized with DMSO and the absorbance was determined at 570 nm.
(§1) A375 were seeded (2000 cells/well) exposed to TNP-470 and to arrange concentrations of AD-3281 (1-100 μM) cells were incubated for 72 h at 37° C., After incubation, MTT (Sigma Aldrich, St. Louis City, MO, USA) was added (0.5 mg/mL) into each well for viability detection and incubated at 37° C. and 5% CO2 for 40 minutes. The absorbance was measured at 540 nm using a plate reader (Wallac 1420 VICTOR plate reader, Perkin-Elmer Life Sciences, USA). The proliferation of HUVECs was measured under the same conditions. HUVECs were seeded (3000 cells/well) in 96-well plates
To further verify the inhibition activity of encapsulated AD-3281 in PLGA nanoparticles HUVECS and A375 were exposed to different concentrations of nanoparticles equivalent to 50-1000 nM free AD-3281 (0.2-4.16 mg/ml nanoparticles) empty nanoparticles were added as a control. The effect of AD-3281 on HUVECs growth was evaluated after 5 days.
as §1, with “after” for “After”, “plates. […]” for “plates”

ERG study in mice = assay type: in vivo; conditions: Low dose 12 μg per eye and High dose 48 μg per eye
[1] = system: Choroidal Neovascularization (CNV); experiment: Laser-induced CNV in mice; assay type: in vivo, C57Bl/6J mice; conditions: 12 μg per eye, intravitreal, 7 days
Excerpt: Laser-induced CNV was generated by a previously described technique with some modifications. C57Bl/6J mice (6-8 weeks) were anesthetized by intraperitoneal injections of a mixture of 85% ketamine and 15% xylazine. A mixture of 0.5% tropicamide and 0.5% phenylephrine hydrochloride was applied to both eyes to dilate the pupils. Lesions were induced by a diode pumped solid state laser (0.1 s; spot size, 100 μm; power 120 mW) around the optic nerve through a slit lamp delivery system using a Nidek while a hand-held cover slide was used as a contact lens. Only lesions in which a subretinal bubble or focal serous detachment of the retina developed were used for the experiments. For this purpose, 4 burns were performed per eye while leaving a space around the optic disc. Intravitreal injections of the treatments were performed using a PLI-100 Pico-Injector following the laser procedure. After 7 days mice were euthanized and their eyes were removed and fixed in 4% paraformaldehyde for 60 min. The cornea and lens were removed, and the entire retina was carefully dissected from the eyecup Choroid.
Blood vessels were labeled using a 1:200 dilution of isolectin IB4 conjugated with Alexa Fluor 488 or lectin-FITC. The eyecup was flat-mounted in an aqua-mount with the sclera facing down and the choroid facing up. […] The CNV area (presented in μm2) in choroidal flat mount was evaluated using ImageJ software […]

[2] = system: A375 3D multicellular spheroids; experiment: A375 3D spheroid viability (WST1); assay type: cell-based, human; conditions: 50 μM free inhibitor, 96 h
Description: 3D Petri Dish 35-well array (Microtissues Inc., RI, USA) was used to create 2% agarose hydrogel micro-wells. Each well contained 5,000 cells of A375 cells. 30 minutes after seeding, 1 ml of medium was added and templates were incubated at 37° C. for 24 hours. […] The absorbance was measured at 450 nm using a plate reader (Wallac 1420 VICTOR plate reader, Perkin-Elmer Life Sciences, USA).

MetAP2 = MetAP2 (Homo sapiens, UniProt P50579); experiment: MetAp2 enzymatic assay, L-Met-AMC substrate (Experimental Set-Up 1); assay type: biochemical
Chain of MetAP2 (P50579 whole entry): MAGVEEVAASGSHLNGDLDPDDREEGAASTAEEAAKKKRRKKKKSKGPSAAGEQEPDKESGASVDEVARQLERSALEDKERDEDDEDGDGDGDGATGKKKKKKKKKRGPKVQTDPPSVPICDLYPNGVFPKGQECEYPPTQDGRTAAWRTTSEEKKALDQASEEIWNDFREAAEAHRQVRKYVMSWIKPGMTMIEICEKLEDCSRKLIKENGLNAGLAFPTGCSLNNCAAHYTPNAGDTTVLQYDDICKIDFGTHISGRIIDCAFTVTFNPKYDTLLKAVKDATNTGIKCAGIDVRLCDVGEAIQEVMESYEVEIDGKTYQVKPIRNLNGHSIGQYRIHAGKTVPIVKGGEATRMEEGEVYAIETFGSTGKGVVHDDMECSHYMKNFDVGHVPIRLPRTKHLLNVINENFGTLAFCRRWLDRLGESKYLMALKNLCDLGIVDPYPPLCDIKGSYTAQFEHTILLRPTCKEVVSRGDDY
Description: Quantitative MetAP2 activity assay by N-terminal cleavage of substrate 7-amino-4-methyl-courmarin was performed as follows: The activity of MetAP2 was measured using fluorescent peptide substrate L-Met-AMC (Santa Cruz Biotechnology, Inc, sc-207807) as described by Garrabrant et al. (Angiogenesis 7: 91-96, 2004). Briefly, the reaction (100 μl final) was initiated by adding 0.5 μg of MetAP2 or 5 μg HUVEC homogenate to reaction buffer containing 50 mM HEPES (pH 7.4), 100 mM NaCl, 0.1 mM CoCl2, 1 mg/ml PEG6000, and 250 μM L-Met-AMC substrate. The assay was prepared in black flat-bottomed 96-well microtiter plates and fluorescence was measured every 20 s over a period of 60 min at 25° C. using a microplate fluorometer (Bioteck, SynergyHT), with excitation and emission wavelengths set at 360 and 440 nm respectively. As a control the inhibition of the enzyme was obtained by incubating it with TNP-470 for 15 min before the addition of the substrate.
The inhibitory effect of the compounds were tested in MetAp2 enzymatic assay.

Structure (SMILES): COC1C(OC(=O)CC23CC4CC(CC(C4)C2)C3)CCC2(CO2)C1C1(C)OC1CC=C(C)C (stereo not shown) [AD-3281, Fumagillol-1-adamantylacetate]
- suppression of endothelial cell proliferation (ranking among compounds) (HUVECs): most active
- reduction in HUVECs proliferation (HUVECs; 1 μM): 40%
- reduction in HUVECs proliferation (HUVECs; 10 μM): 50%
- damage to vision (ERG) (ERG study in mice): no damage to vision
- effect on mouse laser induced CNV [1]: 46%
- effect of free inhibitor on spheroids viability [2]: did not show a significant reduction; also recorded: slight reduction of spheroids viability
- inhibitory effect in MetAp2 enzymatic assay (ranking among compounds) (MetAP2): most active
